Source: patent publication US6660742B2, “Compositions and methods of the use thereof achiral analogues of CC-1065 and the duocarmycins” (priority 2000, dated 2003)
Read-outs that look alike come from different tables or passages of the source.

Tests used:
[1] = system: panel of 60 human cancer cell lines; experiment: NCI in-vitro cytotoxicity screen, whole panel; type: cell-based
SW-620 = experiment: NCI screen, SW-620 (Colon Cancer); type: cell-based, human
Description: (§1) The compounds of this invention were also tested against the panel of 60 human cancer cell lines at the National Cancer Institute, Bethesda, Md. […] The cytrotoxicity studies were conducted using a 48 hour exposure, and measuring the optical density of sulforhodamide B-derived color.

IGROV1 = experiment: NCI screen, IGROV1 (Ovarian Cancer); type: cell-based, human; conditions: IGROV1, 48 hour exposure
Description: as §1

ACHN = type: cell-based, human
M14 = experiment: NCI screen, M14 (Melanoma); conditions: M14, 48 hour exposure
Description: as §1

MOLT-4 = experiment: NCI screen, MOLT-4 (Leukemia)
Description: as §1

HT29 = experiment: NCI screen, HT29 (Colon Cancer)
Description: as §1

SF-268 = experiment: NCI screen, SF-268 (CNS Cancer); conditions: SF-268, 48 hour exposure
Description: (§2) The compounds of this invention were also tested against the panel of 60 human cancer cell lines at the National Cancer Institute, Bethesda, Md. (44). The cytrotoxicity studies were conducted using a 48 hour exposure, and measuring the optical density of sulforhodamide B-derived color.

SK-MEL-2 = experiment: NCI screen, SK-MEL-2 (Melanoma)
Description: as §1

SK-MEL-5 = experiment: NCI screen, SK-MEL-5 (Melanoma)
Description: as §1

UACC-257 = experiment: NCI screen, UACC-257 (Melanoma)
Description: as §1

MCF7 = experiment: NCI screen, MCF7 (Breast Cancer)
Description: as §1

CAKI-1 = experiment: NCI screen, CAKI-1 (Renal Cancer); conditions: CAKI-1, 48 hour exposure
Description: as §1

HCT-116 = experiment: NCI screen, HCT-116 (Colon Cancer); conditions: HCT-116, 48 hour exposure
Description: as §1

BT-549 = experiment: NCI screen, BT-549 (Breast Cancer); conditions: BT-549, 48 hour exposure
Description: as §2

HCC-2998 = experiment: NCI screen, HCC-2998 (Colon Cancer)
Description: as §1

HS 578T = experiment: NCI screen, HS 578T (Breast Cancer); conditions: HS 578T, 48 hour exposure
Description: as §2

SK-OV-3 = experiment: NCI screen, SK-OV-3 (Ovarian Cancer)
Description: as §1

HOP-62 = experiment: NCI screen, HOP-62 (Non-Small Cell Lung Cancer)
Description: as §1

NCI-H23 = experiment: NCI screen, NCI-H23 (Non-Small Cell Lung Cancer)
Description: as §1

NCI-H522 = experiment: NCI screen, NCI-H522 (Non-Small Cell Lung Cancer)
Description: as §1

[2] = Log10 Concentration −4.3, 48 hour exposure
[3] = Log10 Concentration −5.3, 48 hour exposure
[4] = Log10 Concentration −6.3, 48 hour exposure
[5] = Log10 Concentration −7.3, 48 hour exposure
[6] = Log10 Concentration −8.3, 48 hour exposure

## COC(=O)c1[nH]c2c(O)cc(NC(=O)c3cc4cc(OC)c(OC)c(OC)c4[nH]3)c(CCCl)c2c1C(=O)OC [Compound 22, Dimethyl 4-(2-chloroethyl)-7-hydroxy-5-(5,6,7-trimethoxyindole-2-carboxamido)indole-2,3-dicarboxylate]
[1]; 48 hour exposure
  range of activity: micromolar range
[1]; leukemia cells
  activity against leukemia cells: none of these compounds showed much activity
[1]; melanoma cells
  activity against melanoma cells: active
[1]; solid tumors cells
  activity against solid tumors cells: strong activity
SW-620; 48 hour exposure
  TGI: 1.90E−05 Molar
SW-620; [2]
  Percent Growth: −11%
SW-620; [3]
  Percent Growth: 16%
SW-620; [4]
  Percent Growth: 9%
SW-620; [5]
  Percent Growth: 71%
SW-620; [6]
  Percent Growth: 86%
IGROV1
  TGI: 1.62E−07 Molar
IGROV1; Log10 Concentration −4.3
  Percent Growth: −80%
IGROV1; Log10 Concentration −5.3
  Percent Growth: −35%
IGROV1; Log10 Concentration −6.3
  Percent Growth: −59%
IGROV1; Log10 Concentration −7.3
  Percent Growth: 61%
IGROV1; Log10 Concentration −8.3
  Percent Growth: 71%
ACHN
  TGI: 5.95E−06 Molar
RPMI-8226
  TGI: >5.00E−05 Molar
A549/ATCC; [2]
  Percent Growth: 5%
A549/ATCC; [3]
  Percent Growth: 12%
A549/ATCC; [4]
  Percent Growth: −6%
A549/ATCC; [5]
  Percent Growth: 93%
A549/ATCC; [6]
  Percent Growth: 108%
M14
  TGI: 1.68E−07 Molar
M14; Log10 Concentration −4.3
  Percent Growth: −92%
M14; Log10 Concentration −5.3
  Percent Growth: −90%
M14; Log10 Concentration −6.3
  Percent Growth: −69%
M14; Log10 Concentration −7.3
  Percent Growth: 77%
M14; Log10 Concentration −8.3
  Percent Growth: 105%
MOLT-4; 48 hour exposure
  TGI: >5.00E−05 Molar
MOLT-4; [2]
  Percent Growth: 22%
MOLT-4; [3]
  Percent Growth: 20%
MOLT-4; [4]
  Percent Growth: 21%
MOLT-4; [5]
  Percent Growth: 28%
MOLT-4; [6]
  Percent Growth: 61%
HT29; 48 hour exposure
  TGI: 2.28E−07 Molar
HT29; [2]
  Percent Growth: −55%
HT29; [3]
  Percent Growth: −59%
HT29; [4]
  Percent Growth: −32%
HT29; [5]
  Percent Growth: 63%
HT29; [6]
  Percent Growth: 84%
SF-268
  TGI: 8.40E−08 Molar
SF-268; Log10 Concentration −4.3
  Percent Growth: −58%
SF-268; Log10 Concentration −5.3
  Percent Growth: −63%
SF-268; Log10 Concentration −6.3
  Percent Growth: −42%
SF-268; Log10 Concentration −7.3
  Percent Growth: 12%
SF-268; Log10 Concentration −8.3
  Percent Growth: 80%
SK-MEL-2; 48 hour exposure
  TGI: 1.69E−07 Molar
SK-MEL-2; [2]
  Percent Growth: −87%
SK-MEL-2; [3]
  Percent Growth: −74%
SK-MEL-2; [4]
  Percent Growth: −78%
SK-MEL-2; [5]
  Percent Growth: 87%
SK-MEL-2; [6]
  Percent Growth: 89%
SK-MEL-5; [2]
  Percent Growth: −19%
SK-MEL-5; [3]
  Percent Growth: 9%
SK-MEL-5; [4]
  Percent Growth: −2%
SK-MEL-5; [5]
  Percent Growth: 42%
SK-MEL-5; [6]
  Percent Growth: 86%
UACC-257; 48 hour exposure
  TGI: 2.25E−05 Molar
UACC-257; [2]
  Percent Growth: −10%
UACC-257; [3]
  Percent Growth: 19%
UACC-257; [4]
  Percent Growth: 6%
UACC-257; [5]
  Percent Growth: 99%
UACC-257; [6]
  Percent Growth: 101%
MCF7; 48 hour exposure
  TGI: 6.31E−06 Molar
MCF7; [2]
  Percent Growth: −51%
MCF7; [3]
  Percent Growth: 6%
MCF7; [4]
  Percent Growth: 6%
MCF7; [5]
  Percent Growth: 39%
MCF7; [6]
  Percent Growth: 70%
CAKI-1
  TGI: 8.01E−06 Molar
CAKI-1; Log10 Concentration −4.3
  Percent Growth: −40%
CAKI-1; Log10 Concentration −5.3
  Percent Growth: 10%
CAKI-1; Log10 Concentration −6.3
  Percent Growth: 12%
CAKI-1; Log10 Concentration −7.3
  Percent Growth: 83%
CAKI-1; Log10 Concentration −8.3
  Percent Growth: 97%
HCT-116
  TGI: 1.95E−07 Molar
HCT-116; Log10 Concentration −4.3
  Percent Growth: −59%
HCT-116; Log10 Concentration −5.3
  Percent Growth: −9%
HCT-116; Log10 Concentration −6.3
  Percent Growth: −43%
HCT-116; Log10 Concentration −7.3
  Percent Growth: 62%
HCT-116; Log10 Concentration −8.3
  Percent Growth: 88%
BT-549
  TGI: 1.23E−05 Molar
BT-549; Log10 Concentration −4.3
  Percent Growth: −39%
BT-549; Log10 Concentration −5.3
  Percent Growth: 25%
BT-549; Log10 Concentration −6.3
  Percent Growth: 42%
BT-549; Log10 Concentration −7.3
  Percent Growth: 85%
BT-549; Log10 Concentration −8.3
  Percent Growth: 91%
HCC-2998; 48 hour exposure
  TGI: 2.89E−07 Molar
HCC-2998; [2]
  Percent Growth: −88%
HCC-2998; [3]
  Percent Growth: −31%
HCC-2998; [4]
  Percent Growth: −27%
HCC-2998; [5]
  Percent Growth: 85%
HCC-2998; [6]
  Percent Growth: 91%
HS 578T
  TGI: 2.80E−07 Molar
HS 578T; Log10 Concentration −4.3
  Percent Growth: −54%
HS 578T; Log10 Concentration −5.3
  Percent Growth: −73%
HS 578T; Log10 Concentration −6.3
  Percent Growth: −41%
HS 578T; Log10 Concentration −7.3
  Percent Growth: 122%
HS 578T; Log10 Concentration −8.3
  Percent Growth: 130%
SK-OV-3; 48 hour exposure
  TGI: 8.81E−06 Molar
SK-OV-3; [2]
  Percent Growth: −54%
SK-OV-3; [3]
  Percent Growth: 17%
SK-OV-3; [4]
  Percent Growth: 35%
SK-OV-3; [5]
  Percent Growth: 90%
SK-OV-3; [6]
  Percent Growth: 103%
HOP-62; 48 hour exposure
  TGI: 2.51E−07 Molar
HOP-62; [2]
  Percent Growth: −88%
HOP-62; [3]
  Percent Growth: −39%
HOP-62; [4]
  Percent Growth: −34%
HOP-62; [5]
  Percent Growth: 80%
HOP-62; [6]
  Percent Growth: 92%
NCI-H23; 48 hour exposure
  TGI: 5.63E−06 Molar
NCI-H23; [2]
  Percent Growth: −25%
NCI-H23; [3]
  Percent Growth: 1%
NCI-H23; [4]
  Percent Growth: 9%
NCI-H23; [5]
  Percent Growth: 56%
NCI-H23; [6]
  Percent Growth: 83%
NCI-H522; 48 hour exposure
  TGI: 1.47E−07 Molar
NCI-H522; [2]
  Percent Growth: −96%
NCI-H522; [3]
  Percent Growth: −86%
NCI-H522; [4]
  Percent Growth: −66%
NCI-H522; [5]
  Percent Growth: 58%
NCI-H522; [6]
  Percent Growth: 74%
